Columns and labels:
[1] = target: each individual kinase of the panel (Homo sapiens, UniProt P49137); test: Standardized radiometric kinase assays, percentage of activity at 0.5 μM;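 further: Read-out is ³³P-labelled substrate protein phosphorylated by each kinase, captured on filters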
[2] = target: each individual kinase of the panel (Homo sapiens, UniProt P53350); test: as above; conditions: Plk1(h)
[3] = target: each individual kinase of the panel (Homo sapiens, UniProt O43318); test: as above; conditions: for % Activity: TAK1(h)
[4] = target: each individual kinase of the panel (Homo sapiens, UniProt Q9BZL6); test: as above; conditions: for % Activity: PKD2(h)
[5] = target: each individual kinase of the panel (Homo sapiens, UniProt Q9NWZ3); test: as above; conditions: for % Activity: IRAK4(h)
[6] = target: each individual kinase of the panel (Homo sapiens, UniProt O14733); test: as above; conditions: for % Activity: MKK7β(h)
Chain of each individual kinase of the panel (Homo sapiens, UniProt O14733) (O14733 2-419 limits assumed): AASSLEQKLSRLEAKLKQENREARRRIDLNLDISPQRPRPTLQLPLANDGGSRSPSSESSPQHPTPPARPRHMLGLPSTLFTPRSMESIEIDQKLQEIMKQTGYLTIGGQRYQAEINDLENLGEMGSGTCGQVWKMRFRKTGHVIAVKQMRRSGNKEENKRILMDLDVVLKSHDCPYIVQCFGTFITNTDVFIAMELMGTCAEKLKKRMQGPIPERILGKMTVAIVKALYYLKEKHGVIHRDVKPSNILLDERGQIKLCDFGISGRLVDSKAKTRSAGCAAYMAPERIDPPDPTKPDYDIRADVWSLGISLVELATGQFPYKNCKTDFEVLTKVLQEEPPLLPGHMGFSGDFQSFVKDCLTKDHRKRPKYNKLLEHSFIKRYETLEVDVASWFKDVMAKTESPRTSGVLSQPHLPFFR

[7] = target: each individual kinase of the panel (Homo sapiens, UniProt P24941); test: as above; conditions: for % Activity: CDK2/cyclinA(h)
[8] = target: each individual kinase of the panel (Homo sapiens, UniProt Q9H2X6); test: as above; conditions: for % Activity: HIPK2(h)
[9] = target: each individual kinase of the panel (Homo sapiens, UniProt P80192); test: as above; conditions: for % Activity: MLK1(h)
[10] = target: each individual kinase of the panel (Homo sapiens, UniProt P23443); test: as above; conditions: for % Activity: p70S6K(h)
[11] = target: each individual kinase of the panel (Homo sapiens, UniProt P00533, T790M); test: as above; conditions: for % Activity: EGFR(T790M)(h)
[12] = target: each individual kinase of the panel (Homo sapiens, UniProt P51955); test: as above
[13] = target: each individual kinase of the panel (Homo sapiens, UniProt P07948); test: as above; conditions: for % Activity: Lyn(h)
Chain of each individual kinase of the panel (Homo sapiens, UniProt P07948) (P07948 2-512 limits assumed): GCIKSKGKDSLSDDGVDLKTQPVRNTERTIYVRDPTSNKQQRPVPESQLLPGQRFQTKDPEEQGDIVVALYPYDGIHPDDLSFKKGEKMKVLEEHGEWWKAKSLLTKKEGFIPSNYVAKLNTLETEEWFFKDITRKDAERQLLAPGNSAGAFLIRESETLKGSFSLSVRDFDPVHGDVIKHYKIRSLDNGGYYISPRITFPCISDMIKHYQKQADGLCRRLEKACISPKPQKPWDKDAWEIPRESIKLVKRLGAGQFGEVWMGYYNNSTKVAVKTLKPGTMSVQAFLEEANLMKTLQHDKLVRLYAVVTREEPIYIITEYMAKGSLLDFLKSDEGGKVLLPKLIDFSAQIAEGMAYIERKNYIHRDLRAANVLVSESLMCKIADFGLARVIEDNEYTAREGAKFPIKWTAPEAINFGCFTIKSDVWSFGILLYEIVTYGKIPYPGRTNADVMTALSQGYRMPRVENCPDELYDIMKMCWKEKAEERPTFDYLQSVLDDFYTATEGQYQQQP

[14] = system: each individual kinase of the panel; test: as above; conditions: MAPK1(h)
[15] = target: each individual kinase of the panel (Homo sapiens, UniProt P00519); test: as above; conditions: for % Activity: Abl(h)
[16] = target: each individual kinase of the panel (Homo sapiens, UniProt Q15303); test: as above; conditions: for % Activity: ErbB4(h)
Chain of each individual kinase of the panel (Homo sapiens, UniProt Q15303) (Q15303 26-1308 limits assumed): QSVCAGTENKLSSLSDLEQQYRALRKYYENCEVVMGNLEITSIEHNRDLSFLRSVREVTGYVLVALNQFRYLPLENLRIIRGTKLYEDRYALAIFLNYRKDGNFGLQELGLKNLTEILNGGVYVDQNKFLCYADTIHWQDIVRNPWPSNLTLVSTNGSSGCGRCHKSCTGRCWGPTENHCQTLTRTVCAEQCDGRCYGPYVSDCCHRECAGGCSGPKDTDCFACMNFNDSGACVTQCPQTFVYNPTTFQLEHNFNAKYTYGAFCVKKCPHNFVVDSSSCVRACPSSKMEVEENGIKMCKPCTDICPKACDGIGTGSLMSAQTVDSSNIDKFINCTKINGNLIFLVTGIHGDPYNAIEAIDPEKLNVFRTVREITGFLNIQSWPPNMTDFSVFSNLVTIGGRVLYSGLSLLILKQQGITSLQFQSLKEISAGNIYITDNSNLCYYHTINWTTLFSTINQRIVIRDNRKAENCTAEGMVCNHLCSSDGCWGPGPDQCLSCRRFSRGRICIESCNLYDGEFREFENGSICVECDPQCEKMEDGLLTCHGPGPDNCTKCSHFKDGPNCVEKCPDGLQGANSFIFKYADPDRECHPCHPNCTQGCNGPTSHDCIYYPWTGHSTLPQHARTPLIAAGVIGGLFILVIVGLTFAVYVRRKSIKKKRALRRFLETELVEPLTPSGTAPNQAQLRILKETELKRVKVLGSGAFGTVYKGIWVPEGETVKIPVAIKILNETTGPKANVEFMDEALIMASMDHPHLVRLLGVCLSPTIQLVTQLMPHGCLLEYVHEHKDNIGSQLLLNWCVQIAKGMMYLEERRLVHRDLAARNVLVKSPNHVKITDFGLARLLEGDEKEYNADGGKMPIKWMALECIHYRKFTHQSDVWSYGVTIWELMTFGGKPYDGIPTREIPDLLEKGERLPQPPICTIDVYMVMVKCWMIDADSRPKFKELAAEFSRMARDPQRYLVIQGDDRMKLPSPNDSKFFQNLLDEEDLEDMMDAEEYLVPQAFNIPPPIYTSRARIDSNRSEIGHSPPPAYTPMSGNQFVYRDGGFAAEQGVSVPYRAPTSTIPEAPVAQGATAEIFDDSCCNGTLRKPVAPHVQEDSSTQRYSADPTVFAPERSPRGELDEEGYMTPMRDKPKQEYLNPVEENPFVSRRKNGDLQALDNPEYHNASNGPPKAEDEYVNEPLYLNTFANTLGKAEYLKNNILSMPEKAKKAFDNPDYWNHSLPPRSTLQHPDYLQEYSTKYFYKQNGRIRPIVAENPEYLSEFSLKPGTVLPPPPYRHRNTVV

[17] = target: each individual kinase of the panel (Homo sapiens, UniProt Q99683); test: as above; conditions: for % Activity: ASK1(h)
[18] = target: each individual kinase of the panel (Homo sapiens, UniProt Q9HCP0); test: as above; conditions: for % Activity: CK1γ1(h)
[19] = target: each individual kinase of the panel (Homo sapiens, UniProt P17948); test: as above; conditions: for % Activity: Flt1(h)
Chain of each individual kinase of the panel (Homo sapiens, UniProt P17948) (P17948 27-1338 limits assumed): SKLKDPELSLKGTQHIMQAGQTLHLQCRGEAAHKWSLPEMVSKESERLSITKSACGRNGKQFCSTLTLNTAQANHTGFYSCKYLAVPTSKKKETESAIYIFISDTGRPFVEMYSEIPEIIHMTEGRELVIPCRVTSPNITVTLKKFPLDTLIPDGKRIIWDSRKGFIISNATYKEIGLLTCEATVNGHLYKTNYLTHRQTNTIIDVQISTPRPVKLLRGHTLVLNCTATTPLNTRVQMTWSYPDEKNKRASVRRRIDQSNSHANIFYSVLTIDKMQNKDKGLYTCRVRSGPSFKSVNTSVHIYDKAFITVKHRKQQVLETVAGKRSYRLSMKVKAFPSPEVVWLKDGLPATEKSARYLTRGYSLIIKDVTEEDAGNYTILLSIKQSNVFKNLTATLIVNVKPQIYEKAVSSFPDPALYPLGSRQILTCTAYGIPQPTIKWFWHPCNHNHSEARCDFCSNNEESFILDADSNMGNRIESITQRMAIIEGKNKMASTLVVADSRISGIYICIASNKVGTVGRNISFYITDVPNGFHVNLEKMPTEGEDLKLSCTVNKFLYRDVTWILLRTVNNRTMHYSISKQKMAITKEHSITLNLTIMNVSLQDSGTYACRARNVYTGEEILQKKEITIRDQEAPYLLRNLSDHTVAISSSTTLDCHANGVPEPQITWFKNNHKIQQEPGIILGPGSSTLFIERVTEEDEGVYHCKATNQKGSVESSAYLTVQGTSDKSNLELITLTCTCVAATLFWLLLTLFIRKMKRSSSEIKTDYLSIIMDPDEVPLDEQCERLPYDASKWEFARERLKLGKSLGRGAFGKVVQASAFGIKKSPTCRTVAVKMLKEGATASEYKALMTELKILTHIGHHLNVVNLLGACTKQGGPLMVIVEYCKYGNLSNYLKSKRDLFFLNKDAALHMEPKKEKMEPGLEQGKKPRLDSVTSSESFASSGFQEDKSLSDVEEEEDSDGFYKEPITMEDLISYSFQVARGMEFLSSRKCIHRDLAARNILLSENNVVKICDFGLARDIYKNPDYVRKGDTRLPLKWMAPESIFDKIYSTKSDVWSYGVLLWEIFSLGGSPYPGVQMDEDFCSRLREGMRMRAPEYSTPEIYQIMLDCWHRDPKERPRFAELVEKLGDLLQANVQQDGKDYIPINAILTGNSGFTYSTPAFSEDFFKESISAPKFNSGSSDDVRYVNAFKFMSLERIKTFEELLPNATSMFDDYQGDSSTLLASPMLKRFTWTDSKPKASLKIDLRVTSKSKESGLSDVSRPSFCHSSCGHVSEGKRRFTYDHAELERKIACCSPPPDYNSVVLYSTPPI

[20] = target: each individual kinase of the panel (Homo sapiens, UniProt P11309); test: as above; conditions: for % Activity: Pim-1(h)
[21] = target: other protein kinases (each individual kinase); test: Standardized radiometric kinase assays, IC50 over 10 drug concentrations; type: biochemical; conditions: estimated
[22] = target: each individual kinase of the panel (Homo sapiens, UniProt P08922); test: Standardized radiometric kinase assays, percentage of activity at 0.5 μM;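 further: Read-out is ³³P-labelled substrate protein phosphorylated by each kinase, captured on filters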
[23] = target: each individual kinase of the panel (Homo sapiens, UniProt P28482); test: as above
Chain of each individual kinase of the panel (Homo sapiens, UniProt P28482) (P28482 2-360 limits assumed): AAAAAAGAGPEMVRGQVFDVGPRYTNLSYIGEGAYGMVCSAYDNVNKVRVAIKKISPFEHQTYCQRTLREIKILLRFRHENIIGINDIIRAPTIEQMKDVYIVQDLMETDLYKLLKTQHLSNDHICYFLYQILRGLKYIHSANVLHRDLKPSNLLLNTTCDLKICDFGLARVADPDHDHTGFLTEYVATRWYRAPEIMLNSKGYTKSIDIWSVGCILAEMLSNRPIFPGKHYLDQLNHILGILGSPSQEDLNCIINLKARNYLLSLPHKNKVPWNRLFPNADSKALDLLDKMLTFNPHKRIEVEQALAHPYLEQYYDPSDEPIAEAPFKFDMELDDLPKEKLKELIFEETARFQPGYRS

[24] = target: each individual kinase of the panel (Mus musculus, UniProt P16277); test: as above
Chain of each individual kinase of the panel (Mus musculus, UniProt P16277) (P16277 2-499 limits assumed): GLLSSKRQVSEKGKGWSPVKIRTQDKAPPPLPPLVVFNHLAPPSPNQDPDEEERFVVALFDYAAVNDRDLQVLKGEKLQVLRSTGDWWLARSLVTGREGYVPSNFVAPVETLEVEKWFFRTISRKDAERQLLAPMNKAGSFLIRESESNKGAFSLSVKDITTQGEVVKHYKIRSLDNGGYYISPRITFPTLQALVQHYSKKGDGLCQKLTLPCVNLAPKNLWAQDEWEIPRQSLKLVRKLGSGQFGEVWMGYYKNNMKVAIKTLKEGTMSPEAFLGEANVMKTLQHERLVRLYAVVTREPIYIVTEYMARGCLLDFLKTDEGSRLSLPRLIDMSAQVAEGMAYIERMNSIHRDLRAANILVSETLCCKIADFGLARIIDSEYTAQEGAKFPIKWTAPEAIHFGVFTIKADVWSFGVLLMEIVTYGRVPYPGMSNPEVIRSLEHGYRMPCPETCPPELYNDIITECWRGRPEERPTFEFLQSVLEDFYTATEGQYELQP

[25] = target: each individual kinase of the panel (Homo sapiens, UniProt Q13882); test: as above
[26] = target: each individual kinase of the panel (Homo sapiens, UniProt P51813); test: as above

Chain of each individual kinase of the panel (Homo sapiens, UniProt P53350) (P53350 2-603 limits assumed): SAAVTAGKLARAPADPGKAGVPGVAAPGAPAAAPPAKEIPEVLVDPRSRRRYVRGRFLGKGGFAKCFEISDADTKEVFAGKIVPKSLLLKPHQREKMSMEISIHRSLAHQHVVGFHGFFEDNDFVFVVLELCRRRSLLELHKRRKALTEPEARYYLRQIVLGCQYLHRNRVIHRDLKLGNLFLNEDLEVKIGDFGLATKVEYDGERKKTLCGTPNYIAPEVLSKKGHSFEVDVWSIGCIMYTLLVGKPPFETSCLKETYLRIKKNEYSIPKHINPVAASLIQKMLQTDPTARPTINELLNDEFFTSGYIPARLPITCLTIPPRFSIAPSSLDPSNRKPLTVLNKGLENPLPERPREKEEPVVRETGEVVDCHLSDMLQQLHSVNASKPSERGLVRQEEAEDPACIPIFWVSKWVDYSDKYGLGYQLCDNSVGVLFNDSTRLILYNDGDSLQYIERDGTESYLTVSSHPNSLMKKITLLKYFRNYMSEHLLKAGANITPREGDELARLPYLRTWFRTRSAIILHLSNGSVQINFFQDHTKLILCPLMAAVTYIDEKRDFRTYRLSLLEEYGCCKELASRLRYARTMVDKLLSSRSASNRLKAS

How did the “% Activity” value ([1]; MAPKAP-K2(h)) turn out when `NC(=O)c1cccc2c1nc(Nc1cccc(Cl)c1)c1ccncc12` [B] was run?
The value was 104%.

What about the “% Activity” value [2] of the same molecule?
Its value is 76%.

What about the “% Activity” value [3] of the same molecule?
The value was 79%.

What about the “% Activity” value [4] of the same molecule?
Its value is 86%.

And the “% Activity” value [5]?
Its value is 81%.

What about the “% Activity” value [6] of the same molecule?
Its value is 75%.

And the “% Activity” value [7]?
The value was 17%.

What about the “% Activity” value [8] of the same molecule?
Its value is 2%.

What about the “% Activity” value [9] of the same molecule?
Its value is 77%.

What about the “% Activity” value [10] of the same molecule?
The value was 87%.

What about the “% Activity” value [11] of the same molecule?
The value was 76%.

And the “% Activity” value ([12]; NEK2(h))?
Its value is 95%.

What about the “% Activity” value [13] of the same molecule?
Its value is 75%.

And the “% Activity” value [14]?
Its value is 86%.

What about the “% Activity” value [15] of the same molecule?
The value was 92%.

And the “% Activity” value [16]?
The value was 77%.

What about the “% Activity” value [17] of the same molecule?
Its value is 93%.

And the “% Activity” value [18]?
Its value is 71%.

And the “% Activity” value [19]?
Its value is 66%.

And the “% Activity” value [20]?
Its value is 9%.

Which IC50 ([21]; Flt3(h)) does the source give for `Clc1ccccc1Nc1nc2c(-c3nnc[nH]3)cccc2c2cnccc12` [A] here?
The IC50 was 104 nM.

What about the IC50 ([21]; Pim-1(h)) of the same molecule?
Its IC50 is 1 nM.

What about the IC50 ([21]; Pim-2(h)) of the same molecule?
The IC50 was 6 nM.

And the IC50 ([21]; Pim-3(h))?
The IC50 was 86 nM.

And the IC50 ([21]; Rsk1(h))?
Its IC50 is 41 nM.

And the IC50 ([21]; Rsk2(h))?
The IC50 was 72 nM.

And the IC50 ([21]; Rsk3(h))?
The IC50 was 73 nM.

What about the IC50 ([21]; Rsk4(h)) of the same molecule?
Its IC50 is 37 nM.

And the “% Activity” value [2]?
Its value is 96%.

And the “% Activity” value [3]?
The value was 28%.

And the “% Activity” value [4]?
The value was 86%.

And the “% Activity” value [5]?
The value was 12%.

What about the “% Activity” value [6] of the same molecule?
Its value is 81%.

What about the “% Activity” value [7] of the same molecule?
The value was 31%.

What about the “% Activity” value [8] of the same molecule?
Its value is −1%.

What about the “% Activity” value [9] of the same molecule?
Its value is 24%.

And the “% Activity” value [10]?
The value was 77%.

What about the “% Activity” value [11] of the same molecule?
Its value is 53%.

What about the “% Activity” value [13] of the same molecule?
The value was 75%.

And the “% Activity” value [14]?
Its value is 77%.

What about the “% Activity” value [15] of the same molecule?
Its value is 87%.

And the “% Activity” value [16]?
The value was 77%.

And the “% Activity” value [17]?
Its value is 92%.

What about the “% Activity” value [18] of the same molecule?
The value was 30%.

What about the “% Activity” value [19] of the same molecule?
Its value is 62%.

And the “% Activity” value [20]?
Its value is 1%.

And the “% Activity” value ([22]; Ros(h))?
The value was 90%.

Which “MAPKAPK2 percentage of activity” value [1] does the source give for `C#Cc1cccc(Nc2nc3cc(C(=O)O)ccc3c3cnccc23)c1` [drawing 1137] here?
The value was −12%.

And the “TAK1 percentage of activity” value [3]?
Its value is 6%.

And the “PRKd_nM2 percentage of activity” value [4]?
Its value is 0%.

What about the “ERK2 percentage of activity” value [23] of the same molecule?
The value was 21%.

What about the “Blk(m) percentage of activity” value [24] of the same molecule?
Its value is 33%.

And the “IRAK4 percentage of activity” value [5]?
The value was 4%.

And the “MAP2K7 beta percentage of activity” value [6]?
Its value is 7%.

And the “CDK2/cyclin A percentage of activity” value [7]?
Its value is 53%.

And the “HIPK2 percentage of activity” value [8]?
Its value is 96%.

And the “BRK percentage of activity” value [25]?
The value was 18%.

What about the “MLK1 percentage of activity” value [9] of the same molecule?
Its value is 21%.

And the “p70S6K percentage of activity” value [10]?
Its value is 36%.

What about the “EGFR(T790M) percentage of activity” value [11] of the same molecule?
The value was 16%.

And the “NEK2 percentage of activity” value [12]?
The value was 73%.

And the “LYN percentage of activity” value [13]?
The value was 20%.

What about the “ABL1 percentage of activity” value [15] of the same molecule?
The value was 20%.

What about the “ERBB4 percentage of activity” value [16] of the same molecule?
The value was 17%.

And the “ASK percentage of activity” value [17]?
Its value is −1%.

And the “CK1 gamma 1 percentage of activity” value [18]?
The value was 10%.

And the “FLT1 percentage of activity” value [19]?
The value was 75%.

What about the “PIM1 percentage of activity” value [20] of the same molecule?
Its value is 75%.

What about the “ROS percentage of activity” value [22] of the same molecule?
The value was 5%.

And the “BMX percentage of activity” value [26]?
The value was 8%.
